Experiments:
Assay in all cases: relative viability (nuclei count vs DMSO), 5 days (fraction); higher = more cells survive
[1] = compound: CC[C@@H](C)CNCC(=O)N1CCC2=C([C@@H]1COC3=CC=CC(=C3)C)C=CS2 [RU-SKI 43] + N=C(N)NC(=N)NCCc1ccccc1 [Phenformin] (partner 250 µM)
Summary of the method: (§1)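 After 5 days of treatment, lung cancer cells in 1536-well plates were fixed and stained in a single step (final 0.05% Triton X-100, 1% formaldehyde, 1 ug/ml Hoechst) and their nuclei counted on 4× images. Treatment had been applied by pin tool the day after seeding as one drug alone or as a fixed anchor-drug dose with five library-drug doses (not always all listed) in √10 steps. Relative viability is the nuclei count of treated wells divided by that of vehicle wells, and values are medians of duplicate plates.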

[2] = compound: CCc1c2c(nc3ccc(OC(=O)N4CCC(N5CCCCC5)CC4)cc13)-c1cc3c(c(=O)n1C2)COC(=O)[C@]3(O)CC [Irinotecan] + CC(=O)Nc1cccc(-n2c(=O)n(C3CC3)c(=O)c3c(Nc4ccc(I)cc4F)n(C)c(=O)c(C)c32)c1 [Trametinib] (partner 0.02 µM)
Summary of the method: as §1

[3] = compound: CCc1c2c(nc3ccc(OC(=O)N4CCC(N5CCCCC5)CC4)cc13)-c1cc3c(c(=O)n1C2)COC(=O)[C@]3(O)CC [Irinotecan] + CCNC(=O)c1noc(-c2cc(C(C)C)c(O)cc2O)c1-c1ccc(CN2CCOCC2)cc1 [Luminespib] (partner 0.01 µM)
Summary of the method: as §1

[4] = compound: CC[C@@H](C)CNCC(=O)N1CCC2=C([C@@H]1COC3=CC=CC(=C3)C)C=CS2 [RU-SKI 43] + CC1(C)CCC(c2ccc(Cl)cc2)=C(CN2CCN(c3ccc(C(=O)NS(=O)(=O)c4ccc(N[C@H](CCN5CCOCC5)CSc5ccccc5)c(S(=O)(=O)C(F)(F)F)c4)cc3)CC2)C1 [Navitoclax] (partner 0.5 µM)
Summary of the method: as §1

Cell Line	relative viability ([1]; first compound 0.1 µM)	relative viability ([1]; first compound 0.3162 µM)	relative viability ([1]; first compound 1 µM)	relative viability ([1]; first compound 3.162 µM)	relative viability ([1]; first compound 10 µM)	relative viability ([2]; first compound 0.6325 µM)	relative viability ([2]; first compound 2 µM)	relative viability ([2]; first compound 6.325 µM)	relative viability ([2]; first compound 20 µM)	relative viability ([3]; first compound 2 µM)	relative viability ([3]; first compound 6.325 µM)	relative viability ([3]; first compound 20 µM)	relative viability ([4]; first compound 0.1 µM)	relative viability ([4]; first compound 0.3162 µM)	relative viability ([4]; first compound 1 µM)	relative viability ([4]; first compound 3.162 µM)	relative viability ([4]; first compound 10 µM)	relative viability ([3]; first compound 0.6325 µM)
201T	0.48	0.437	0.464	0.443	0.442	0.771	0.347	0.255	0.27	0.547	0.313	0.342	1.2	1.18	1.21	1.19	1.18	
NCI-H1650	0.423	0.314	0.445	0.386	0.336	0.484	0.526	0.45	0.125	0.212	0.277	0.271	1.17	1.38	1.41	1.06	0.813	
NCI-H1734	0.43	0.385	0.44	0.35	0.38		0.261	0.188	0.188	0.203	0.222	0.353	0.867	1.49	0.911	0.899	0.803	
SW 1573	0.432	0.35	0.42	0.381	0.31		0.432	0.138	0.0925	0.269	0.195	0.148	0.993	0.93	0.898	1.03	0.721	0.232
NCI-H1993	0.526	0.5	0.471	0.511	0.487		0.5	0.527	0.517	0.745	0.667	1.58	0.932	0.91	0.982	1.05	1.02	0.784
NCI-H1755	0.648	0.613	0.63	0.644	0.666	0.733	0.456	0.405	0.469	0.415	0.299	0.241	1.04	1.14	1.06	1.06	1.05	0.433
PC-14	0.646	0.468	0.841	0.457	0.651	0.744	0.436	0.164	0.137	0.326	0.321	0.252	0.962	1.3	1.08	0.985	0.957	0.11
LK-2	0.484	0.404	0.505	0.811	0.501	0.821	0.7	0.465	0.281	0.224	0.264	0.327	0.962	0.883	0.93	1.07	0.914	0.162
HCC-827	0.421	0.422	0.372	0.46	0.359	0.512	0.383	0.202	0.203	0.501	0.165	0.104	0.998	0.954	1.03	1.08	0.973	0.289

Source: the supplement of paper PMC10307832
